Source: patent US20230202997A1, “CHROMANOL, QUINONE OR HYDROQUINONE COMPOUNDS FOR TREATMENT OF SEPSIS” (Sulfateq B.V., priority 2020, published 2023)

Columns and labels:
[1] = tested on: HUVEC; experiment: Cell viability after hypothermia-rewarming stress (Neutral Red); assay type: cell-based, Human; settings: 10 μM for 1 hour, 4° C. for 24 hours followed by 37° C. for 3 hours
Method: (§1) Human Umbilical Cord Endothelial Cells (HUVEC, Lonza CC-2519) were maintained on 1% gelatin-coated culture flasks in RPMI1640 medium containing 20% fetal bovine serum, 2 mM Glutamine (Sigma-Aldrich), 1% Penicillin-Streptomycin solution (Sigma-Aldrich) and 50 μg/ml Bovine Pituitary Extract (Invitrogen). HUVEC were passaged by trypsinization when the cultures reach a confluency of 70%. For all experiments, HUVEC were seeded at 0.6·10^5 cells/cm^2 and allowed to adhere for 24 hours.
HUVEC were pre-treated with BN-80933, SUL-138 or SUL-150 (all 10 μM) for 1 hour in a humidified incubator at 37° C. Following pre-treatment, HUVEC were placed in a cold room (2-8° C.) for 24 hours and subsequently placed back at 37° C. for a 3 hour rewarming period. After 1 hour of rewarming, cell culture medium was replaced by prewarmed and filtered 0.4 mg/mL Neutral Red (#N463 8, Sigma-Aldrich) in culture medium. After the remaining 2 hour rewarming period, HUVEC were washed with PBS and NRU was solubilized in 100 μL resorption solution (50% ethanol, 1% ascetic acid in dH2O). The absorbance was measured at a wavelength of 550 nm on a BioTek ELx808 plate reader. The recorded OD550 nm values were normalized to control samples that were maintained at 37° C. at all times, which were assumed to be 100% viable.

[2] = tested on: CLP-induced sepsis; experiment: Cecal ligation and puncture (CLP) sepsis model, xyphoid temperature; assay type: in vivo; settings: CLP mice; SUL-138 5 mg/kg s.c. 2 hours before and 8 hours after surgery; 24 hr after procedure
Method: Male C57/BL6J mice were housed at room temperature at a light-dark cycle of 12:12 hour. Animals were fed ad libitum using standard animal lab chow and they had free access to drinking water at all times.
(§2) To induce sepsis, the standard cecal ligation and puncture (CLP) model was used. Animals were anesthetized by subcutaneous injection of xylazine/ketamine (100/10 mg/kg), followed by administration of buprenorphine (0.1 mg/kg) as analgesic. After confirmation of anesthesia by lack of response to paw pinch and eye reflex, the abdomen was shaved, cleaned, and de-germed using a povidone-iodine solution before a 1-cm midline incision was made. The cecum was ligated with a 6-0 suture at half the distance between distal pole and the base of the cecum and punctured once with a 21-Gauge needle (‘through-and-through’ from mesenteric toward anti-mesenteric direction) which is an accepted model for ‘mid-grade’ sepsis. A small amount of stool (2-3 mm) was then extruded to ensure wound patency. The cecum was repositioned, thereby taking care not to spill fecal material on the wound edges, followed by closure of the abdomen by running sutures to the abdominal musculature and short interrupted sutures to the skin. Next, 1 ml of saline (warmed, 0.9% NaCl s.c.) was administered to compensate for the expected relative volume depletion due to the onset of sepsis.
Mice recovered at 26-28° C. […]

[3] = tested on: IL-6 mRNA expression; experiment: Endothelial inflammatory activation after endotoxin, IL-6 mRNA (Example 5); assay type: cell-based, Human; settings: HUVEC; 10 μM for 30 min
Method: as §1
HUVEC cells were lysed in triZOL reagens (Invitrogen) and total RNA isolated according to manufacturers' instruction. 1 μg total RNA per sample was reverse transcribed using the FirstAid Reverse Transcription Kit (ThermoFisher). Copy-DNA equivalents of 5 ng total RNA were amplified on a ViiA7 Real-time PCR system (ThermoFisher, Waltham, Mass.) using iTaq Universal SYBR Green Supermix (Bio-Rad, Hercules, Calif.) and primers specific for tumor necrosis factor alpha (TNFα; sense 5′-[…]-3′, antisense 5′-[…]-3′), interleukin 1 beta (IL-1β; sense 5′-[…]-3′, antisense 5′-[…]-3′), interleukin-6 (IL-6; sense 5′-[…]-3′, antisense 5′-[…]-3′) and beta actin (ACTB; sense 5′-[…]-3′, antisense 5′-[…]-3′) as loading control. Amplification was performed for 40 cycles of 95° C. for 30 s, 60° C. for 1 min. Relative mRNA expression was calculated according to the δδCt-method.

[4] = tested on: plasma levels of IL-6, TNF-α and IL12; experiment: CLP sepsis model, plasma cytokines by ELISA; assay type: in vivo; settings: CLP mice; SUL-138 5 mg/kg s.c. 2 h before and 8 h after surgery; 24 hours
Method: as §2
Mice in the SUL-138 treated groups were injection with SUL-138 (dissolved in saline, 5 mg/kg, s.c.) at 2 hours before and 8 hours after surgery, while mice in the other groups were injected with an equal volume of saline at these time-points.
Mice were sacrificed 24 hours after the procedure. Upon euthanization, EDTA-anticoagulated blood was separated into plasma by centrifugation at 1,600 g for 10 min and serum by allowing it to clot for 30 min followed by centrifugation at 3,000 g for 10 min.
To quantify the effect of sepsis severity and treatment with SUL-138 on systemic inflammation, levels of TNFα, IL-6 and IL-12 in plasma were measured using Mouse DuoSet ELISAs (DY410, DY406 and D419, respectively, RnD-Systems), according to the manufacturer's instructions. […] The optical density (OD) was measured using a microplate reader set to 450 nm, while readings at 540 nm were subtracted as correction to increase accuracy.

Question: `Cc1c(C)c2c(c(C)c1O)CC[C@@](C)(C(=O)N1CCN(CCO)CC1)O2` [SUL-138, (S)-(6-hydroxy-2,5,7,8-tetramethylchroman-2-yl)(4-(2-hydroxyethyl)piperazin-1-yl)methanone] was tested. Which “reduction in cell viability versus normothermic control cells” value [1] did it give?
Answer: ~15%

Question: What about the xiphoid temperature [2] of the same compound?
Answer: restored after 24 hours

Question: And the “LPS-induced mRNA expression of IL-6” value [3]?
Answer: precluded the LPS-induced increase in IL-1β and IL-6

Question: What about the “plasma level of IL12” value [4] of the same compound?
Answer: decreased by treatment with SUL-138 to levels close to untreated control

Question: What about the “plasma level of IL-6” value [4] of the same compound?
Answer: decreased by treatment with SUL-138 to levels close to untreated control

Question: What about the “plasma level of TNF-α” value [4] of the same compound?
Answer: clearly lower, but the difference did not reach significance
